This is an account of results in patent US11267806B2, “Indazole compound for use in inhibiting kinase activity, composition and application thereof” (Shenzhen TargetRx, Inc., priority 2017, dated 2022).

One data set has as its system Ba/F3 EML-ALK cells. Briefly: Cytotoxicity assay (cell viability, CellTiter-Glo), Ba/F3 EML-ALK. The class given is cell-based. As to conditions: Mus musculus, BaF3, 72 h; cell viability, 3 days incubation; read-out: Ba/F3 EML-ALK IC50.
Data set [1] relates to Ba/F3 EML-ALK^L1196M cells. Kind of data set: Cytotoxicity assay (cell viability, CellTiter-Glo), Ba/F3 EML-ALK L1196M. The class given is cell-based. As to conditions: Mus musculus, BaF3, 72 h; cell viability, 3 days incubation; read-out: Ba/F3 EML-ALK^L1196M IC50.
Data set [2] can be described thus: Liver microsomal metabolism assay, human. The class given is in vitro ADME. As to conditions: pH 7.4, human liver microsomes 0.5 mg/mL, compound 1 μM, 37° C.; for microsomal CLint at 1 μM: read-out: Human liver microsome assay CLint; for half-life at 1 μM: read-out: Human liver microsome assay t1/2. Here is the method: (§1) (3) Liver Microsomal Metabolism Assay
(§2) […]; Coenzyme (NADPH/NADH): 1 mM, Sigma Life Science; Magnesium chloride: 5 mM, 100 mM phosphate buffer (pH 7.4).
(§3) Preparation of stock solutions: Powder of the compounds were accurately weighed and dissolved in DMSO to 5 mM.
(§4) Preparation of phosphate buffer (100 mM, pH7.4): A pre-prepared 0.5M potassium dihydrogen phosphate (150 mL) was mixed with 0.5M dibasic potassium phosphate (700 mL). The pH of the mixture was adjusted to 7.4 with 0.5M dibasic potassium phosphate solution. The mixture was diluted 5-fold with ultrapure water before use, and magnesium chloride was added to obtain a phosphate buffer (100 mM) containing 100 mM potassium phosphate, 3.3 mM magnesium chloride, pH 7.4.
(§5) A NADPH regeneration system solution (containing 6.5 mM NADP, 16.5 mM G-6-P, 3 U/mL G-6-P D, 3.3 mM magnesium chloride) was prepared and placed on wet ice prior to use.
(§6) Incubation of the samples: The stock solutions of the respective compounds were respectively diluted to 0.25 mM with an aqueous solution containing 70% acetonitrile, and used as a working solution, ready for use. 398 μL of the dilution of human liver microsomes or rat liver microsomes were added to 96-well incubation plates (N=2), respectively, and 2 μL of 0.25 mM working solution was added and mixed.
(§7) Metabolic stability assay: 300 μL of pre-chilled stop solution was added to each well of 96-well deep well plates and placed on ice as stop plates. The 96-well incubation plates and NADPH regeneration system were placed in a 37° C. water bath box, shaken at 100 rpm and pre-incubated for 5 min. 80 μL of incubation solution was taken out from each well of the incubation plates and added to the stop plates, mixed, and replenished with 20 μL of NADPH regeneration system solution as a 0-min sample. 80 μL of NADPH regeneration system solution was added to each well of the incubation plates to start the reaction and start counting. […] Separately, 100 μL of the reaction solutions was taken at 10, 30, and 90 min reaction, respectively, added to stop plates, and vortexed for 3 minutes to terminate the reaction. The stop plates were centrifuged at 5000×g at 4° C. for 10 min. 100 μL of the supernatant was added to a 96-well plate to which 100 μL of distilled water was previously added, mixed, and analyzed by LC-MS/MS.
(§8) Data analysis: The peak areas of the corresponding compounds and internal standard were detected by LC-MS/MS system, and the ratio of the peak area of the compounds to the internal standard was calculated.
(§9) The metabolic stability of the compounds in human and rat liver microsomes was evaluated by simultaneously testing and comparing the compounds disclosed herein and the non-deuterated compound. […]

Data set [3] in a line: Liver microsomal metabolism assay, rat. The class given is in vitro ADME. The settings on record: SD, pH 7.4, rat liver microsomes 0.5 mg/mL, compound 1 μM, 37° C.; for microsomal CLint at 1 μM: read-out: Rat liver microsome assay CLint; for half-life at 1 μM: read-out: Rat liver microsome assay t1/2. The method, then: as §1, §2, §3, §4, §5, §6, §7, §8, §9
(In general: Liver microsomes are a subcellular fraction often used to study metabolism.)

Data set [4] is described as follows: Pharmacokinetic assay in rats. The class given is in vivo, SD rat. The settings on record: male SD rats, i.g., 3 mg/kg; for AUC(0-t) / Cmax / MRT / Tmax: rat, plasma, po. The method, then: (4) Pharmacokinetic Assay in Rats Assay objective: after administration of test compounds to rats, the pharmacokinetic behavior of the compounds disclosed herein was investigated. Assay Animals: Species and strains: SD rat grade: SPF grade Gender and quantity: male, 6 Weight range: 180 to 220 g (the actual weight range was from 187 to 197 g) Assay Procedure: Before blood samples were collected, 20 μL of 2 M sodium fluoride solution (esterase inhibitor) was previously added to an EDTA-K2 anticoagulant tube, dried in an 80° C. oven, and placed in a 4° C. refrigerator. Rats (male, weighing 187 to 197 g) were randomly divided into 2 groups, and were fasted overnight in the afternoon before the experiment but were allowed to drink water freely. Food was given 4 hours after the administration. […] About 100-200 μL of blood was taken from the orbital vein of rats at 15 min, 30 min, 1, 2, 3, 5, 8 and 10 h after administration, placed in a 0.5 mL Eppendorf tube with EDTA-K2 anticoagulant and mixed immediately. After anticoagulation, the tube was gently inverted 5-6 times as quickly as possible. After the blood was taken, it was placed in an ice box, and then within 30 min, the blood sample was centrifuged for 10 min at 4000 rpm and 4° C. to separate the plasma. Immediately after collection of all plasma, it was stored at −20° C. The concentration of the drug in plasma at each time point was determined after sample collection at all time points. Based on the data of the average concentration of the drug in plasma versus time after administration obtained as described above, pharmacokinetics-related parameters of male SD rats after the i.g. administration of test compounds (3 mg/kg) were calculated using the Winnonin software according to non-compartment statistical moment theory.

Take `[2H]C([2H])(c1cc(F)cc(F)c1)c1ccc2[nH]nc(NC(=O)c3ccc(N4CCN(C([2H])([2H])[2H])CC4)cc3NC3CCOCC3)c2c1` [Compound T-11, N-(5-((3,5-difluorophenyl)methyl-d2)-1H-indazol-3-yl)-4-(4-(methyl-d3)piperazin-1-yl)-2-((tetrahydro-2H-pyran-4-yl)amino)benzamide]: the IC50 in the data set on Ba/F3 EML-ALK cells was 10 to 50 nM; in data set [1], greater than 200 nM. The microsomal CLint at 1 μM was found to be 45 µL/min/mg in data set [2] and 31 µL/min/mg in data set [3]. The half-life at 1 μM in data set [2] came out at 30.8 min; in data set [3], 44.6 min.

For `[2H]C([2H])(c1cc(F)cc(F)c1)c1ccc2[nH]nc(NC(=O)c3ccc(N4CCN(C)CC4)cc3NC3CCOCC3)c2c1` [Compound T-7, N-(5-((3,5-difluorophenyl)methyl-d2)-1H-indazol-3-yl)-4-(4-methylpiperazin-1-yl)-2-((tetrahydro-2H-pyran-4-yl)amino)benzamide], the IC50 with Ba/F3 EML-ALK cells was in the range of 50 to 150 nM. Further, the IC50 in data set [1] was greater than 200 nM. Besides, in data set [2], the microsomal CLint at 1 μM is 51.1 µL/min/mg and the half-life at 1 μM came out at 27.1 min. In addition, in data set [3], the microsomal CLint at 1 μM is 33.7 µL/min/mg and the half-life at 1 μM turned out to be 41.1 min. In addition, in data set [4], the Cl_pred is 97.5 mL/min/kg; the F was determined as 13.67%; the AUC(0-t) (commonly exposure summed from dosing to a finite time, without extrapolation to infinity) is 1770 ng·h/mL; the Cmax (as a rule, the maximum level reached in the sampled fluid or tissue) was determined as 278 ng/mL. Also, in data set [4], the MRT – broadly, a mean duration of stay, worked out from the concentration-time curve – stood at 317 min and the Tmax (in general, the time from dosing to the highest level) was 240 min.

On to `[2H]c1cc(C(=O)Nc2n[nH]c3ccc(Cc4cc(F)cc(F)c4)cc23)c(NC2CCOCC2)c([2H])c1N1CCN(C)CC1` [Compound T-4, N-(5-(3,5-difluorobenzyl)-1H-indazol-3-yl)-4-(4-methylpiperazin-1-yl)-2-((tetrahydro-2H-pyran-4-yl)amino)benzamide-3,5-d], for which the IC50 in the data set with Ba/F3 EML-ALK cells was 50 to 150 nM; in data set [1] it was greater than 200 nM. In addition, the microsomal CLint at 1 μM in data set [2] is 36.2 µL/min/mg; in data set [3], 21.9 µL/min/mg. The half-life at 1 μM was 38.3 min in data set [2] and 63.3 min in data set [3].

For `[2H]c1cc(C(=O)Nc2n[nH]c3ccc(Cc4cc(F)cc(F)c4)cc23)c(NC2CCOCC2)c([2H])c1N1C([2H])([2H])C([2H])([2H])N(C([2H])([2H])[2H])C([2H])([2H])C1([2H])[2H]` [Compound T-6, N-(5-(3,5-difluorobenzyl)-1H-indazol-3-yl)-4-(4-(methyl-d3)piperazin-1-yl-2,2,3,3,5,5,6,6-d8)-2-((tetrahydro-2H-pyran-4-yl)amino)benzamide-3,5-d2], the values for the IC50 (with Ba/F3 EML-ALK cells; in data set [1]) were 50 to 150 nM and greater than 200 nM, respectively. In addition, the microsomal CLint at 1 μM is 42.5 µL/min/mg in data set [2] and 29.7 µL/min/mg in data set [3]. Further, the half-life at 1 μM in data set [2] was 32.6 min; in data set [3] it was 46.7 min.

As to `[2H]c1cc(C(=O)Nc2n[nH]c3ccc(Cc4cc(F)cc(F)c4)cc23)c(NC2CCOCC2)c([2H])c1N1CCN(C([2H])([2H])[2H])CC1` [Compound T-5, N-(5-(3,5-difluorobenzyl)-1H-indazol-3-yl)-4-(4-(methyl-d3)piperazin-1-yl)-2-((tetrahydro-2H-pyran-4-yl)amino)benzamide-3,5-d2], the IC50 in the data set with Ba/F3 EML-ALK cells is 50 to 150 nM; in data set [1], greater than 200 nM. Also, the microsomal CLint at 1 μM worked out at 48.2 µL/min/mg in data set [2] and 31 µL/min/mg in data set [3]. In addition, the half-life at 1 μM in data set [2] is 28.8 min; in data set [3], 44.7 min.

Consider `[2H]C1([2H])CC(Nc2cc(N3CCN(C)CC3)ccc2C(=O)Nc2n[nH]c3ccc(Cc4cc(F)cc(F)c4)cc23)CC([2H])([2H])O1` [Compound T-8, N-(5-(3,5-difluorobenzyl)-1H-indazol-3-yl)-4-(4-methylpiperazin-1-yl)-2-((tetrahydro-2H-pyran-4-yl-2,2,6,6-d4)amino)benzamide], for which the IC50 in the data set on Ba/F3 EML-ALK cells was in the range of 50 to 150 nM. For the same compound, the IC50 in data set [1] is greater than 200 nM. For the same compound, in data set [2], the microsomal CLint at 1 μM is 44.9 µL/min/mg and the half-life at 1 μM was 30.9 min. In addition, in data set [3], the microsomal CLint at 1 μM turned out to be 33.6 µL/min/mg and the half-life at 1 μM was 41.3 min. In data set [4], this compound yielded a Cl_pred of 113 mL/min/kg, an F of 11.78%, an AUC(0-t) of 1530 ng·h/mL and a Cmax of 254 ng/mL. Moreover, in data set [4], the MRT was determined as 265 min and the Tmax amounted to 200 min.

`[2H]C([2H])([2H])N1C([2H])([2H])C([2H])([2H])N(c2ccc(C(=O)Nc3n[nH]c4ccc(Cc5cc(F)cc(F)c5)cc34)c(NC3CCOCC3)c2)C([2H])([2H])C1([2H])[2H]` [Compound T-3, N-(5-(3,5-difluorobenzyl)-1H-indazol-3-yl)-4-(4-(methyl-d3)piperazin-1-yl-2,2,3,3,5,5,6,6-d8)-2-((tetrahydro-2H-pyran-4-yl)amino)benzamide]: the IC50 with Ba/F3 EML-ALK cells was in the range of 50 to 150 nM. In addition, the IC50 in data set [1] was greater than 200 nM. For the same compound, in data set [2], the microsomal CLint at 1 μM is 39.2 µL/min/mg and the half-life at 1 μM worked out at 35.4 min. For the same compound, in data set [3], the microsomal CLint at 1 μM was found to be 27.3 µL/min/mg and the half-life at 1 μM was found to be 50.7 min. Moreover, in data set [4], the Cl_pred stood at 411 mL/min/kg, the F was determined as 13.03%, the AUC(0-t) was determined as 1550 ng·h/mL and the Cmax was 237 ng/mL. In data set [4], the MRT stood at 295 min and the Tmax is 200 min.

Regarding `[2H]c1c(F)cc(Cc2ccc3[nH]nc(NC(=O)c4ccc(N5CCN(C)CC5)cc4NC4CCOCC4)c3c2)cc1F` [Compound T-9], the IC50 was 50 to 150 nM with Ba/F3 EML-ALK cells and greater than 200 nM in data set [1]. The microsomal CLint at 1 μM in data set [2] came to 47.5 µL/min/mg; in data set [3], 33.7 µL/min/mg. Further, the half-life at 1 μM in data set [2] worked out at 29.2 min; in data set [3], 41.1 min.
